Experimental data reported in patent US20060025477A1, “Analogs of isovaleramide, a pharmaceutical composition including the same, and a method of treating central nervous system conditions or diseases” (priority 2004, published 2006).
“And” between values parts separate entries of the source, which are not always exact repeats. Identical values can stand only once. Like-named read-outs stand apart in the source and are kept apart here.

Experiments:
[1] = test system: Frings audiogenic seizure-susceptible mouse; test: Frings audiogenic seizure assay (protection against sound-induced tonic hindlimb extension); type: in vivo; details: for Seizure Score ± S.E.M.: score 1-5; for ED50: Mus musculus, po
Protocol: The anticonvulsant activity of compound S ((S)-(+)-2,2-dimethylcyclopropane-carboxamide) was tested using the Frings audiogenic seizure-susceptible mouse. […] Compound S, which is a solution at 300 mg/kg and a suspension at 600 mg/kg, was administered to the mice at the doses indicated in Tables 1-3. Compound S was obtained from Sigma-Aldrich Chemical Co. (Aldrich catalog number: 43,463-9).
At the time of testing, individual mice were placed into a round Plexiglas chamber and exposed to a sound stimulus of 110 decibels, 11 kHz, for 20 seconds. Mice not displaying tonic hindlimb extensions upon exposure to the sound stimulus were considered protected. In addition, the seizure score for each mouse was recorded as: (1) running for less than 10 seconds; (2) running for greater than 10 seconds; (3) clonic activity of limbs and/or vibrissae; (4) forelimb extension/hindlimb flexion; and (5) hindlimb extension. The average seizure score was calculated for each group of mice used in the dose-response study.
The anticonvulsant activity of compounds I, W, X, and AA was tested using the Frings audiogenic seizure-susceptible mouse model as described in Example 23. […] The therapeutic index relates to separation between therapeutic efficacy and CNS toxicity as measured by motor impairment in the rotarod performance test.

[2] = Rotarod test of motor impairment (toxicity) in the Frings study; type: in vivo; details: Frings, mouse, in vivo, po, rotarod, Table 4
Protocol: (§1) At each dose, the mice were also tested on a rotarod for testing of motor impairment (toxicity). Testing for motor impairment on the rotarod involved placing a mouse for a three-minute trial period on a one-inch diameter rod rotating at six revolutions per minute. If the mouse fell off of the rotating rod three times within the three-minute time period, the dose was considered a toxic response.
(§2) The therapeutic index relates to separation between therapeutic efficacy and CNS toxicity as measured by motor impairment in the rotarod performance test.

Frings mice = test: as above; type: in vivo
Protocol: as §1, §2

male Swiss-Webster mice [3] = test: Maximal electroshock (MES)-induced tonic extension seizure test; type: in vivo, mouse; details: 300 mg/kg p.o.
Protocol: In the MES test, a substance is administered orally (p.o.) and is tested for efficacy against maximal electroshock (MES)-induced tonic extension seizures. Adult male Swiss-Webster mice (each 20-25 g of body weight) were used. The mice were housed in Association for the Assessment and Accreditation of Laboratory Animal Care-approved facilities under a constant 12-hour light/dark cycle with a constant temperature of 21° C.-23° C. and a relative humidity of 30% to 50%. All animals were permitted free access to standard laboratory chow (Prolab RMH 3000; PMI Nutrition International, LLC, Brentwood, Mo.) and water, except when removed from their home cages for testing. All mice were handled in a manner consistent with the recommendations in the National Research Council Publication Guide for the Care and Use of Laboratory Animals.
(§3) Test compounds (Compound S, Compound W, the S-enantiomer of Compound AA, the R-enantiomer of Compound AA, Compound HH, Compound JJ, and Compound MM) were dissolved in saline containing 0.5% methylcellulose. To determine time to peak effect, 300 mg/kg of each of the test compounds was suspended in 0.5% methylcellulose in saline and administered orally to a group of 20 mice. For comparative purposes, isovaleramide was also tested. At various times (0.25, 0.5, 1, 2, and 4 hours) after p.o. administration, individual mice were placed on the rotarod and tested for their ability to maintain balance on a rotating (6 rpm) 2.5-cm diameter knurled rod for 60 seconds. Mice that fell three times in this 60-second trial were considered impaired.
Following rotarod testing, the mice were tested in the maximal electroshock (MES)-induced tonic extension seizures test. For this test, a drop of electrolyte solution (0.5% butacaine sulfate in 0.9% saline) was placed on the eyes of each mouse prior to placement of corneal electrodes. The mice were restrained by gripping the loose skin on their dorsal surface and saline-coated corneal electrodes were held lightly against the two corneas. Each mouse received an electrical stimulation (50 mAmp, 50 Hz current, 0.2 sec) delivered through a silver-coated corneal electrode using an electroshock machine as originally described by Woodbury and Davenport (Arch Int. Pharmacodyn. Ther., 92:97-104, 1952). […] A tonic seizure was defined as a hindlimb extension in excess of 90 degrees from the plane of the body. Results were treated in a quantal manner. […] ED50's (the effective dose at which 50% of the mice were protected) were determined for Compounds W and HH by administering various doses (30, 100, 300 mg/kg) at the previously determined time to peak effect, as shown in Table 11.

male Swiss-Webster mice [4] = test: Rotarod impairment test before MES testing; type: in vivo, mouse; details: 300 mg/kg p.o.
Protocol: as §3

## CC1(C)C[C@@H]1C(N)=O [Compound S, (S)-(+)-2,2-dimethylcyclopropanecarboxamide]
[1]; 30 mg/kg p.o., Table 1
  #Protected/#Tested 30 min: no mice were protected and 0/4
  #Protected/#Tested 120 min: no mice were protected and 0/4
[1]; 50 mg/kg p.o., Table 3
  #Prot./#Tested at 15 min: none of the mice were protected and 0/8
[1]; 50 mg/kg p.o.
  Seizure Score ± S.E.M.: 5 ± 0
[1]; 60 mg/kg p.o., Table 3
  #Prot./#Tested at 15 min: 5/8
[1]; 60 mg/kg p.o., 15 minutes, Table 3
  mice protected: 62.5%
[1]; 60 mg/kg p.o.
  Seizure Score ± S.E.M.: 2.1 ± 0.9
[1]; 75 mg/kg p.o., Table 3
  #Prot./#Tested at 15 min: 7/8
[1]; 75 mg/kg p.o., 15 minutes, Table 2
  mice protected: 75%
[1]; 75 mg/kg p.o., 15 minutes, Table 3
  mice protected: 87.5%
[1]; 75 mg/kg p.o.
  Seizure Score ± S.E.M.: 1.1 ± 0.6
[1]; 75 mg/kg p.o., ¼ hr, Table 2
  # Prot./# Tested: ¾
[1]; 75 mg/kg p.o., ½ hr, Table 2
  # Prot./# Tested: no mice were protected and 0/4
[1]; 100 mg/kg p.o., Table 3
  #Prot./#Tested at 15 min: 6/8
[1]; 100 mg/kg p.o., 15 minutes, Table 2
  mice protected: 75%
[1]; 100 mg/kg p.o., 15 minutes, Table 3
  mice protected: 75%
[1]; 100 mg/kg p.o., Table 1
  #Protected/#Tested 30 min: 3/4
  #Protected/#Tested 120 min: 1/4
[1]; 100 mg/kg p.o., 30 minutes, Table 1
  mice protected: 75%
[1]; 100 mg/kg p.o., 30 minutes, Table 2
  mice protected: 75%
[1]; 100 mg/kg p.o., 1 hr, Table 2
  # Prot./# Tested: no mice were protected and 0/4
[1]; 100 mg/kg p.o., 2 hrs, Table 2
  # Prot./# Tested: 1 mouse was protected and 1/4
[1]; 100 mg/kg p.o., 120 minutes, Table 1
  mice protected: 25%
[1]; 100 mg/kg p.o.
  Seizure Score ± S.E.M.: 1.6 ± 0.8
[1]; 100 mg/kg p.o., ¼ hr, Table 2
  # Prot./# Tested: ¾
[1]; 100 mg/kg p.o., ½ hr, Table 2
  # Prot./# Tested: 3/4
[1]; 200 mg/kg p.o., Table 3
  #Prot./#Tested at 15 min: all the mice were protected and 8/8
[1]; 200 mg/kg p.o.
  Seizure Score ± S.E.M.: 0.1 ± 0.1
[1]; 300 mg/kg p.o., Table 1
  #Protected/#Tested 30 min: all of the tested mice were protected and 4/4
  #Protected/#Tested 120 min: all of the tested mice were protected and 4/4
[1]; 50-200 mg/kg p.o., Table 3
  average seizure score with dose: generally decreased with increasing doses
[1]; 0.25 h, p.o., tested at 15 min, 95% confidence interval 50.16-78.92, read-out: ED50 for protection against tonic extension
  ED50: 64.9 mg/kg
[1]; Table 4, read-out: ED50
  ED50: 64.8 mg/kg
[1]; after oral administration
  time at which anticonvulsant activity was observed: as early as 15 minutes and up to 2 hours
[1]; p.o.
  anticonvulsant activity (summary): demonstrated activity as an anticonvulsant
[2]
  TD50 at 15 min: > 600 mg/kg
Frings mice; 30 mg/kg p.o., rotarod
  #Toxic/#Tested 30 min: 0/4
  #Toxic/#Tested 120 min: 0/4
Frings mice; 100 mg/kg p.o., rotarod
  #Toxic/#Tested 30 min: 0/4
  #Toxic/#Tested 120 min: 0/4
Frings mice; 300 mg/kg p.o., rotarod
  #Toxic/#Tested 30 min: 0/4
  #Toxic/#Tested 120 min: 0/4
Frings mice; 600 mg/kg p.o., 15 min, rotarod
  #Toxic/#Tested at 15 min: 1/8
Frings mice; 600 mg/kg p.o., 15 minutes, rotarod
  mice with a toxic response: 12.5%
Frings mice; as measured by rotarod impairment, p.o.
  separation between efficacy and CNS toxicity: 10 fold
Frings mice; doses of Table 1 (30, 100, 300 mg/kg p.o.), 30 or 120 minutes
  toxic responses on the rotarod: none of the doses produced toxic responses
Frings mice; p.o.
  separation between activity and toxicity (summary): good separation between activity and toxicity
Frings mice; p.o., rotarod
  toxicity (summary): low toxicity
Male Swiss-Webster mice [3]; 0.25 hours
  # P/# T (protected/tested): 0/8
Male Swiss-Webster mice [3]; 0.5 hours
  # P/# T (protected/tested): 0/8
Male Swiss-Webster mice [3]; 1 hour
  # P/# T (protected/tested): 1/8
Male Swiss-Webster mice [3]; 2 hours
  # P/# T (protected/tested): 0/4
Male Swiss-Webster mice [3]; 4 hours
  # P/# T (protected/tested): 0/4
Male Swiss-Webster mice [4]; 0.25 hours
  # I/# T (impaired/tested): 0/8
Male Swiss-Webster mice [4]; 0.5 hours
  # I/# T (impaired/tested): 1/8
Male Swiss-Webster mice [4]; 1 hour
  # I/# T (impaired/tested): 1/8
Male Swiss-Webster mice [4]; 2 hours
  # I/# T (impaired/tested): 0/4
Male Swiss-Webster mice [4]; 4 hours
  # I/# T (impaired/tested): 0/4
